Assay results reported in patent publication US9375426B2, “Method of screening anti-plasmodial activity of acriflavin and acriflavin as an anti-malarial agent” (priority 2012, dated 2016).

How the values were obtained:
Plasmodium berghei = system: Plasmodium berghei
Procedure: FIG. 2: In vivo measurement of parasite killing ability of Acriflavin.
This is further described hereinafter as Example 3.
The mice were divided into three groups (each group had 4 mice). For four consecutive days, group I was injected subcutaneously with 5 mg Acriflavin/kg body weight; group II received 5 mg Chloroquine/kg body weight and the group III received no drug and served as control in this experiment. Every alternate day the parasitemia from the tail blood was calculated. […] The mouse groups were kept under observation for 3 weeks after the drug treatment.

[1] = system: malaria parasite in vitro; test: Anti-malarial property of Acriflavin vs Proflavin in vitro (parasitemia at end of first life cycle); assay type: cell-based, Plasmodium falciparum; details: 100 nM and 250 nM drug concentrations
Procedure: FIG. 1: Effect of Acriflavin on in vitro growth of 3D7 and W2 strains. Synchronized chloroquine susceptible 3D7 (A) and Chloroquine resistant W2 (B) parasites at ring stage (˜16-20 hrs) were treated with 20 nM to 100 nM of Acriflavin and parasitemia were counted at different time points (post-treatment) as indicated. (C) In each case, parasitemia were determined at the end of the first life cycle and plotted against different concentrations of Acriflavin/Proflavin. Each point/column represents the parasitemia of the mean of triplicates with standard deviations. […] Parasite growth inhibition was assessed by microscopy of giemsa stained smear at different time points as indicated.
Acriflavin is a mixture of 3,6-diamino-10-methylacridinium chloride (Trypflavin) and 3,6-diaminoacridine (Proflavin). […] After the Acriflavin treatment, the parasitemia was calculated in each case. Further, the anti-malarial property of Acriflavin vs Proflavin was also evaluated.
To determine the antimalarial activity of Acriflavin in vitro, synchronised ring stage, Chloroquine sensitive (3D7) and Chloroquine resistant (W2) P. falciparum (˜2.5% parasitemia) parasites were incubated with a range of Acriflavin concentrations (0-100 nM). After 40 hours of the Acriflavin treatment, the parasitemia was calculated in each case. […]

CCN(CC)CCCC(C)Nc1ccnc2cc(Cl)ccc12 (stereo not shown) [Chloroquine]
parasitemia at the end of day 6 (Plasmodium berghei; 5 mg/kg body weight subcutaneously, four consecutive days, tail blood, untreated control 16%): 0.33%
survivability rate (Plasmodium berghei; 5 mg/kg s.c. for four days, 3 weeks observation after treatment, untreated control 25%): 75%

Nc1ccc2cc3ccc(N)cc3nc2c1 [Proflavin, 3,6-diaminoacridine]
anti-malarial property against malaria parasite in vitro [1]: ineffective

mixture of 3,6-diamino-10-methylacridinium chloride (Trypflavin) and 3,6-diaminoacridine (Proflavin) [Acriflavin]
drug-related effects on body weight or general condition of animals (Plasmodium berghei; mouse, in vivo): No drug-related effects
